{"source": "patent US11607424B2", "about": "“Carbon-rich micro-particles for protecting bees and overcoming colony collapse disorder” (WASHINGTON STATE UNIVERSITY, priority 2018, dated 2023)", "tested_on": "honey bees", "experiment": "Detoxification effects: caged adult bees chronically exposed orally to 50 ppb Thiamethoxam with or without CMPs", "assay_type": "in vivo", "conditions": "50 ppb TXM, absence of CMPs", "protocol": "A total of 70 plastic cages (15 cm×8 cm×10 cm) with a removable cover were used FIGS. 4A and B). Adult honey bees were collected from broods of at least seven colonies and homogenously distributed in all control and experimental cages to eliminate possible colony-level effects on the results. Cages were loaded with 100 bees per cage and then incubated in complete darkness at 30° C. and 70% relative humidity (RH). Bees were fed a sugar solution (50% w/v). The CMPs were administered at a concentration of 1% w/v in the sugar solution and delivered to experimental cages on day 2. Stock solutions of Thiamethoxam (TXM) (3-[(2-Chloro-1,3-thiazol-5-yl)methyl]-5-methyl-N-nitro-1,3,5-oxadiazinan-4-imine) were prepared from analytical grade TMX (Sigma Aldrich 37924-100MG-R) at concentration of 30 mg/L in E-pure water, and maintained at 4° C. The pesticide was administered at a concentration of 50 ppb on day 2. […]\nTreatments were arranged in a completely randomized design. […] The mortality rates and feed consumption were recorded daily. Production and morphology of bee feces (frass) were assessed to ensure that CMPs passed through the bees digestive system with no harm. Bee behavior and activity (i.e. number of falls per 30 seconds, inability to climb, etc.) were also assessed. Dispensability of the CMPs in the sugar solutions were also assessed during the experiments. […]", "data": [{"smiles": "CN1COCN(Cc2cnc(Cl)s2)C1=N[N+](=O)[O-]", "note": "[TXM, 3-[(2-Chloro-1,3-thiazol-5-yl)methyl]-5-methyl-N-nitro-1,3,5-oxadiazinan-4-imine]", "values": [{"measurement": "bee deaths (daily die-off) on day 2", "result": 2.5, "unit": "%"}, {"measurement": "bee deaths (daily die-off) on day 5", "result": 21, "unit": "%"}]}]}
